Experimental data as given in patent US20060167098A1, “Method for the treatment of diseases linked to an accumulation of triglycerides and cholesterol” (Institut National De La Sante ET De LA Recherche Medicale …, priority 2003, published 2006).

Columns and labels:
Type in all cases: in vivo
[1] = Plasma lipids in lean mice fed with a standard diet, 6 weeks, not fasted; details: 100 mg/kg/day 6 weeks
Procedure: (§1) Plasma lipids (triglycerides, total cholesterol, phospholipids) were measured on an automatic analyser (Hitachi 717®). The commercial kits used to assess triglycerides, total cholesterol and phospholipids on this analyser were all from bioMérieux (references 61238, 61219 and 61491, respectively). Plasma non esterified fatty acids (NEFA) were assessed by using a commercial kit (Wako, reference 994-75409). Hepatic and plasma lipids were performed at the end of six weeks of treatment in animals that have been fasted for 48 hours. Triglycerides and HDL-cholesterol were also assessed after 2 months (in the fed state) or after 4 months of treatment (after an overnight fast).
Plasma lipids were assessed in lean mice fed with a standard diet and receiving or not of 100 mg/kg/day of β-aminoisobutyric acid (BAIBA) in the drinking water during 6 weeks. There were six animals per group. At the end of the 6 weeks of treatment, mice were not fasted and samples of blood were then collected for the assessment of plasma triglycerides and total cholesterol. […] Indeed, plasma triglycerides were 3.18±0.23 and 2.95±0.21 mmol/L, respectively in control and treated mice whereas plasma total cholesterol was 5.35±0.35 and 5.23±0.28 mmol/L, respectively in control and treated mice.

[2] = Plasma lipids in Swiss mice fed with a western diet, 6 weeks, 48-hour fast; details: 100 mg/kg/day
Procedure: as §1
Plasma lipids were assessed in mice fed with the western diet (WD) and receiving or not of 100 mg/kg/day of β-aminoisobutyric acid (BAIBA) in the drinking water (8 mice in each group). For comparison, the experiment also included a group of mice (n=8) fed with a standard diet (SD). These animals were those used for the determination of body fat by DEXA and liver lipids (see above, paragraph I-c and II-a, respectively). After the last DEXA measurement (after 6 weeks of treatment), mice were allowed to recover from the anaesthesia for ca. 2 days and were then submitted to a 48-hour period of fast. At the end of this fasting period, a sample of blood was collected (from the retroorbital sinus) […] and plasma triglycerides, phospholipids, total cholesterol and non-esterified fatty acids (NEFA) were subsequently determined. After 6 weeks, the western diet was responsible for an increase of all plasma lipids, but the most affected lipids were triglycerides.

[3] = Plasma glucose in lean mice, standard diet, 6 weeks, not fasted; details: 100 mg/kg/day 6 weeks
Procedure: Plasma glucose was measured on an automatic analyser (Synchron LX20 from Beckman Coulter) with a commercial kit (kit n°472500 from Beckman).
In a second series of experiments plasma glucose was assessed in lean mice fed with the standard diet and receiving (6 mice) or not (6 mice) 100 mg/kg/day of β-aminoisobutyric acid in the drinking water for 6 weeks, but at the end of the experiment, mice were not fasted. […] Indeed, plasma glucose was 11.5±0.8 and 10.7±0.4 mmol/L, respectively in control and treated mice.

[4] = Gain of body fat mass by DEXA in Swiss mice, standard diet, not fasted; details: 100 mg/kg/day; for gain of body fat: standard diet, not fasted
Text: Six to 8 weeks old male (Crl:CD-1(ICR)BR) Swiss mice, and six to ten weeks old male RjOrl Swiss mice (i.e. lean mice) weighing 28 and 32 grams were purchased from Dépré (Saint Doulchard, France). Ten to 12 weeks old ob/ob male (C57BL/6-ob) mice (i.e. obese mice), weighing 40 to 44 grams were purchased from Janvier (Le-Genest-St-Isle, France). In one experiment, younger ob/ob mice (5-6 weeks old) weighing 25-26 grams were also studied. In genetically obese ob/ob mice, a mutation on the gene of leptin prevents the normal production of this hormone, thus increasing appetite and decreasing energy consumption (Friedman J. M., Halaas J. L., 1998, Nature 395 : 763-770). […] The animals were acclimatized for one to two weeks before the start of experiments.
D,L-β-Aminoisobutyric acid (BAIBA) was purchased from Sigma-Aldrich. BAIBA has been administered in drinking water at the dose of 100 mg/kg/day or 500 mg/kg/day for 6 weeks, 2 months or 4 months according to the experiments.
The in vivo determination of body fat mass in anesthetized mice has been performed by “DEXA” (Dual Energy X-ray Absorptiometry) (Pietriobelli A., Formica C., Wang Z., Heymsfield S. B., 1996, Am. J. Physiol. 271 (Endocrinol. Metab. 34): E941-E951)). […] It is noteworthy that DEXA also gives for each investigated animal its lean mass that is the total amount of water and proteins (in grams) in the body (excluding the head). Therefore, for a given animal, DEXA allows the determination of the percentage of body fat which is its body fat mass divided by the sum of its body lean and fat masses (fat mass/(lean mass+fat mass)). The “DEXA” apparatus was a Piximus® from Lunar Corporation (Madison, Wis.). Mice were anesthetized thanks to a mixture of xylazine and ketamine.
Procedure 1: the animals were not fasted before DEXA investigations. The first DEXA measurement was performed one day before the beginning of the investigation (T0). Afterwards, DEXA measurements have been respectively performed two weeks (T2) and six weeks (T6) after the beginning of the treatment. With this procedure, it has been possible to determine in each group of animals the evolution of several parameters (e.g. fat mass, body weight) between respectively T0 and T2, and T2 and T6. Comparisons of these evolutions were thus performed for the T0-T2, T2-T6 and T0-T6 periods.
In a second series of investigations, we sought to determine as to whether of 100 mg/kg/day of β-aminoisobutyric acid (BAIBA) decreases body fat in Swiss mice not submitted to fast before DEXA measurements. Mice were 6 to 8 weeks old at the beginning of the experiment. In this experiment, DEXA was performed one day before the beginning of the treatment (T0) and then two and six weeks after the initiation of the experience (T2 and T6, respectively). This allowed us to determine for each animal the variation of body fat mass for the different periods of the treatment (T0-T2, T2-T6 and T0-T6). […] This effect of BAIBA is submitted in FIG. 2.

## CC(CN)C(=O)O (racemic) [BAIBA, D,L-β-Aminoisobutyric acid]
[1]
  plasma total cholesterol: 5.23 ± 0.28 mmol/L
  plasma triglycerides: 2.95 ± 0.21 mmol/L
[2]
  decrease of plasma NEFA: 16%
  decrease of total cholesterol: 4%
  plasma NEFA: 0.88 ± 0.06 mmol/L
  plasma total cholesterol: 6.71 ± 0.27 mmol/L
  plasma triglycerides: 1.54 ± 0.13 mmol/L
[2]; not significant
  reduction of plasma triglycerides: 22%
[3]
  plasma glucose: 10.7 ± 0.4 mmol/L
[4]; T0-T2 period
  gain of body fat: 0.56±0.12 grams
[4]; T0-T6
  gain of body weight: 9.02±0.42 grams
[4]; T0-T6, standard diet, vs control
  reduction of the gain of fat mass: 55%
[4]; T0-T6, vs control, p<0.01
  reduction of the gain of body weight: 12%
[4]; T0-T6 period
  gain of body fat: 0.84±0.18 grams
[4]; T2-T6 period
  gain of body fat: 0.28±0.12 grams
